Test results reported in patent US6339062B1, “Retroinverso polypeptides that mimic or inhibit thrombospondin activity” (Inkine Pharmaceutical Company, Inc., priority 1998, dated 2002).
Marks after values point to notes of the source that are not given here. Where no end group is shown, it is not given here. [ ]: non-standard residue; d: D form. The star is where a group is joined. Acm = CC(=O)NC*

Key:
[1] = Stability toward oxidation; type: physicochemical; details: compared with unblocked peptide
[2] = test system: mouse B16-F10 melanoma cells; assay: Melanoma lung metastasis, daily i.p. from day 3 after implantation (Example 23); type: in vivo, mice; details: daily i.p. for 10 days from day 3, FIG. 14
Method: Mice were intravenously injected with mouse B16-F10 melanoma cells (75,000). After 3 days, each mouse was treated daily by intraperitoneal injection with either PBS, 0.01 mg, or 1 mg of peptide for 10 days. Treatment groups consisted of 5 mice. After 10 days animals were sacrificed and lung tumors counted. Error bars represent the standard error of the mean. p<0.001 between control- and peptide-treated groups.

[3] = test system: mouse B16-F10 melanoma cells; assay: Direct adhesion to dried peptide (Example 31); type: cell-based; details: 10 μg of each peptide; one hour; FIG. 20
Method: Peptide effect on direct adhesion was tested by drying 10 μg of each peptide on the bottom of a 96well microtiter plate. Plates were blocked with BSA. Mouse B16-F10 melanoma cells (50,000) were plated in each well and allowed to attach for one hour. Non-adherent cells were aspirated out, plates rinsed, and adherent cells were fixed, stained, and counted. The error bars represent the standard deviation.

[4] = test system: mouse B16-F10 melanoma cells; assay: Melanoma lung metastasis, one bolus i.v. or i.p. (Example 22); type: in vivo; details: for blocking activity in metastasis and the other assays, peptide versus blocked analogue: mouse, in vivo
Method: One bolus injection of Cys-(Acm)-Ser-Val-Thr-Cys-(Acm)-Gly (SEQ ID NO: 6) peptide (1 mg/mouse intravenously or 5 mg/mouse intraperitoneally ) was administered followed by intravenous injection of mouse B16-F10 melanoma cells (100,000). Each treatment group consisted of 5 animals. After 10 days animals were sacrificed and lung tumors counted. […] Error bars represent the standard error of the mean. P values between control and peptide-treated groups <0.001.

[5] = test system: mouse B16-F10 melanoma cells; assay: Boyden chamber assay, TSP-1 mediated invasion of collagen (Examples 29, 30); type: cell-based; details: for dose-dependent effect on melanoma cell invasion: FIG. 19
Method: Cell invasion was investigated by the Boyden Chamber Invasion Assay using the modified Boyden chamber. T. Frandsen et al., Fibrinolysis, 6: 71-76 (1992). Polycarbonate filters, 12 μm pore size, e.g., Millicell, Millipore Corporation, Bedford, Ma, were coated with 100 μg Type IV collagen (1 mg/ml 60% EtOH) and dried overnight at 25° C. Blind-well Boyden chambers are filled with 600 μl of serum-free media containing 0.1% BSA in the lower compartment, and the coated filters will be mounted in the chamber. Approximately 50,000 cells (tested to be greater than 95% viable) suspended in 400 μl of the same media will be placed in the upper chamber of the apparatus and allowed to settle onto the collagen-coated membrane. Varying concentrations of TSP-1 (0-150 nM) will be placed in the lower compartment and any neutralizing antibodies as well as peptides will be placed in the upper chamber. After an incubation period of about 3 to 6 hours at 37° C., the cells on the upper surface of the filter will be removed with a cotton swab. The filters are then fixed in 3% glutaraldehyde solution and stained with 0.5% crystal violet solution. Invasive cells adhering to the under-surface of the filter are counted using a phase contrast microscope (400×).
Using this assay, mouse B16-F10 melanoma cells (50,000) were plated on the collagen-coated disk of the Boyden chamber apparatus. The top chamber contained melanoma cells in the presence of 500 μg/ml of the TSP-1 derived peptide and the bottom chamber contained 20 μg/ml TSP-1. After 6 hours, cells traversing the collagen were counted as cells attached to the underside of the collagen-coated disk. Five representative fields per chamber in duplicate were counted. The data shown in FIG. 18 represents the average per field and the error bars represent the standard deviation. The scrambled peptide, Val-Cys-Thr-Gly-Ser-Cys (SEQ ID NO: 7), the irrelevant peptide, Ala-Ser-Val-Thr-Ala-Arg (SEQ ID NO: 38), buffer, and the d-amino acid Cys-Ser-Val-Thr-Cys-Gly (SEQ ID NO: 40) had no effect on invasion.
The experiments were performed as described for Example 29. […] In contrast, d-Cys-Ser-Val-Thr-Cys-Gly (SEQ ID NO: 40) had no effect.

[6] = test system: human MDA-MB-231 breast carcinoma cells; assay: Athymic model of human tumor progression, peptide experiments (Example 24); type: in vivo, athymic mice
Method: To further evaluate the anti-metastatic properties of the Cys-Ser-Val-Thr-Cys-Gly (SEQ ID NO: 1) peptide, we measured the effect of peptide and antibody against the Cys-Ser-Val-Thr-Cys-Gly (SEQ ID NO: 1) receptor in an athymic model of human tumor progression. In this model, human MDA-MB-231 breast carcinoma cells were injected intraperitoneally in athymic mice. Animals were then treated with either peptide or receptor IgG for three weeks after which the extent of lung and liver metastasis is determined.
For the peptide experiments, eighteen mice were inoculated with MDA-MB-231 human breast cancer cells. After 72 hours, mice were randomized to treatment with every-other-day intraperitoneal injections of saline, scrambled peptide, or a Cys-Ser-Val-Thr-Cys-Gly (SEQ ID NO: 1) peptide for 20 days. One mouse treated with the Cys-Ser-Val-Thr-Cys-Gly (SEQ ID NO: 1) peptide expired after traumatic injection. Mice were sacrificed at 21 days. The peritoneal cavity was examined grossly for primary tumor implantation. The liver and lungs were examined histologically for micrometastases. Statistical analysis was performed by Chi-square analysis.

washed human platelets = assay: Collagen-induced platelet aggregation (Examples 9, 10); type: cell-based; details: 5 μg/ml collagen; various concentrations; FIG. 10
Method: Washed human platelets were suspended in HEPES-buffered saline, containing 5 mM glucose and 350 μg/ml BSA. 0.5 ml aliquots of platelets were aggregated by stirring with 5 μg/ml collagen in the presence of 500 μg/ml of various peptides. Aggregation was measured at 37° C. as decrease in optical absorbance vs. time in a Chrono-log aggregometer and is shown in FIG. 9. 100% aggregation was defined as the maximal decrease in absorbance measured in the absence of peptide. % of control was calculated as the decrease in absorbance measured in the presence of peptide divided by the decrease in absorbance measured in the absence of peptide times 100. Peptides are designated under each bar graph by their amino acid sequence represented using the one letter amino acid code.
Washed human platelets were suspended in HEPES-buffered saline, containing S mM glucose and 350 μg/ml BSA. […] Aggregation was measured at 37° C. as decrease in optical absorbance vs. time in a chrono-log aggregometer and is shown in FIG. 10. 100%; aggregation was defined as the maximal decrease in absorbance measured in the absence of peptide. % of control was calculated as the decrease in absorbance measured in the presence of peptide divided by the decrease in absorbance measured in the absence of peptide times 100.

rat aorta = assay: Angiogenesis in serum-free collagen gel culture of rat aorta (Example 28); type: cell-based; details: compared to untreated control or scrambled peptide control; FIG. 17
Source text: Error bars=SEM. Photo-micrograph (4× magnification) of a representative aortic ring culture treated either with Cys-Ser-Val-Thr-Cys-Gly (SEQ ID NO: 1) or Val-Cys-Thr-Gly-Ser-Cys (SEQ ID NO: 7) (FIG. 17B). The Cys-Ser-Val-Thr-Cys-Gly (SEQ ID NO: 1)-treated culture has fewer capillary outgrowths than the Val-Cys-Thr-Gly-Ser-Cys (SEQ ID NO: 7) scrambled peptide control.

[7] = test system: MMP-9 production in BAE cells; assay: TSP-1-stimulated endothelial MMP-9 production (Example 27); type: cell-based
Method: BAE cells were treated with TSP-1 as described in Example 27. MMP-9 levels were quantitated from densitometry of the zymograms prepared from the BAE cell conditioned media. The control was 15 μg/ml TSP-1. All other treatments were performed in the presence of 15 μg/ml TSP-1.

[8] = test system: mouse B16-F10 melanoma cells; assay: Melanoma tumor cell metastasis, peptide i.v. (Example 21); type: in vivo, mice; details: 1 mg peptide i.v. shortly before or after tumor implantation; two weeks; FIG. 12
Source text: Mice were sacrificed two weeks later and lung tumors counted. Treatment groups consisted of five animals. The photograph of FIG. 12 depicts three lungs from each treatment group. The black spots are melanoma tumors. All metastasis experiments were repeated 2-3 times showing qualitatively similar results depicted in the bar graph of FIG. 12.

[9] = test system: mouse B16-F10 melanoma cells; assay: Tumor cell metastasis, one i.p. injection of peptide (Example 32); type: in vivo; details: 1 mg peptide i.p. once; 14 days; FIG. 21
Method: Mouse B16-F10 melanoma cells (75,000 ) were injected intravenously and was immediately followed by one intraperitoneal injection of 1 mg of peptide. Six animals were treated with each peptide. Animals were sacrificed 14 days later and lung colonies counted. The data shown in FIG. 21 represents the mean of lung colonies and the error bars represent the standard error of the mean. The peptides, d-Gly-Cys-(Acm)-Thr-Val-Ser-Cys-(Acm) (retroinverso) (SEQ ID NO: 35), and l-Cys-(Acm)-Ser-Val-Thr-Cys-(Acm)-Gly (SEQ ID NO: 6) inhibited metastasis by more than 80%, whereas d-Cys-Ser-Val-Thr-Cys-Gly (SEQ ID NO: 40) had no effect.

[10] = i.p. every other day for 20 days, sacrificed at 21 days

| Substance | stability toward oxidation [1] | reduction in lung colonies with respect to buffer-treated ([2]; 0.01 mg/ml-treated animals) [%] | suppression of melanoma colonies ([2]; 1 mg/ml treated animals) | adhesion of cells to dried peptide [3] | blocking activity in metastasis and the other assays, peptide versus blocked analogue [4] | fewer lung metastasis as compared to saline or scrambled peptide controls ([4]; one bolus, 1 mg/mouse i.v. or 5 mg/mouse i.p., 10 days) [%] | large lung metastases ([4]; one bolus, 10 days) | dose-dependent effect on melanoma cell invasion [5] | in vivo breast cancer progression; metastases in the two organs examined ([6]; compared with saline or scrambled peptide groups) | intraperitoneal tumors ([6]; gross examination at 21 days) | Liver: no. of animals with metastases/total no. of animals [6, 10] | Lungs: no. of animals with metastases/total no. of animals [6, 10] | collagen-induced platelet aggregation, dose response (washed human platelets) | angiogenesis (capillary outgrowths) (rat aorta) | % inhibition (MMP-9) ([7]; 0.20 mM, with 15 μg/ml TSP-1) [%] | Relative MMP-9 Levels ([7]; 0.20 mM, with 15 μg/ml TSP-1) | inhibited MMP-9 production ([7]; at high doses) [%] | melanoma cell metastasis (lung tumors) [8] | inhibition of metastasis (lung colonies) [9] | inhibition of TSP-1 mediated invasion ([5]; 500 μg/ml peptide top chamber, 20 μg/ml TSP-1 bottom chamber, 6 hours, FIG. 18) |
| --- | --- | --- | --- | --- | --- | --- | --- | --- | --- | --- | --- | --- | --- | --- | --- | --- | --- | --- | --- | --- |
| C(Acm)SVTC(Acm)G | more stable toward oxidation | 27 | more than 80% | half as well as fibronectin and TSP-1 | identical blocking activity | 80 | few large lung metastases | same dose-dependent inhibition |  |  |  |  |  |  |  |  |  |  |  |  |
| CSVTCG (cysteine pairing not given here) |  |  |  | half as well as fibronectin and TSP-1 | identical blocking activity |  |  |  | significantly decreased metastases | fewer and smaller intraperitoneal tumors | 1/5* | 0/5 | inhibit collagen-induced platelet aggregation | inhibited angiogenesis | 86 | 0.14 | 86 | significantly blocked |  |  |
| [dC]SVTCG (cysteine pairing not given here) |  |  |  | did not promote adhesion |  |  |  | no effect |  |  |  |  |  |  |  |  |  |  | no effect | no effect |
